Test results published in patent US11147765B1, “Instantly dissolving buccal films” (King Abdulaziz University, priority 2020, dated 2021).
Where a name gives a salt, the structure may show the parent alone.

Legend:
[1] = Dissolution screening of DPX and its physical mixtures with organic acids and cyclodextrins; type: physicochemical; conditions: phosphate buffer pH 6.8, 37±0.5° C., in absence of excipients
Procedure: Various organic acids (CA, MA, and TA) and cyclodextrins β3-CD and HP-β-CD) were assessed as acidifiers and hydrophilic solubilizers to enhance the dissolution of DPX. Equivalent amounts of DPX and each of the studied excipients were thoroughly mixed for 5 min. The dissolution behavior of specified quantity of each mixture equivalent to 30 mg DPX was done in 900 mL phosphate buffer (pH 6.8) using USP Dissolution Tester, apparatus II (DT 720, Erweka, Germany) operating at 50 rpm at 37±0.5° C.. Aliquot samples were withdrawn after 2 and 15 minutes and replaced with equal volume of fresh buffer. Samples were filtered through a 0.22 μm Millipore filter, and the concentration of DPX was quantified spectrophotometrically at 292 nm (UV-2600 PC; Shimadzu, Kyoto, Japan). The dissolution study was done in triplicate.

[2] = reported [26]; cited from earlier work

CN(C)[C@@H](CCOc1cccc2ccccc12)c1ccccc1 [DPX, Dapoxetine hydrochloride]
percent dissolved after 2 minutes [1]: 2.13±0.09% | percent dissolved after 15 minutes [1]: 2.89±0.06% | solubility in phosphate buffer pH 6.8 [2]: 0.26 μg·mL^−1
